Literature values in patent US7709647B2, “Tetrahydroquinoline cannabinoid receptor modulators” (Bristol-Myers Squibb Company, priority 2005, dated 2010).

Experiments:
[1] = chronic administration for two weeks
[2] = tested on: human subjects; details: 16 week trial period, published Phase IIb data

| Compound | body weight [1] | body weight [2] |
| --- | --- | --- |
| Cc1c(C(=O)NN2CCCCC2)nn(-c2ccc(Cl)cc2Cl)c1-c1ccc(I)cc1 [AM-251] | substantial body weight reduction |  |
| Cc1c(C(=O)NN2CCCCC2)nn(-c2ccc(Cl)cc2Cl)c1-c1ccc(Cl)cc1 [SR-141716] |  | dose-dependently reduced body weight |
